From patent publication US20120245120A1, “ZINC SUCROSE OCTASULFATES, THEIR PREPARATION, AND PHARMACEUTICAL AND COSMETIC USES THEREOF” (PIERRE FABRE DERMO-COSMETIQUE, priority 2009, published 2012)

System: keratinocyte cell lines HaCAT
Test: In vitro cell migration assay (Oris Cell Migration Assay kit)
Format: cell-based, human
Design: Average OD: scale not given here
Settings: for % activity/negative control / Average OD / % activity/TGFβ: HaCaT migration
Method: The purpose of this study was to assess the effect of zinc sucrose octasulfate on cell migration of keratinocyte cell lines HaCAT, using an Oris Cell Migration Assay Kit (Platypus Technologies). This study was carried out in comparison with potassium sucrose octasulfate, and sodium sucrose octasulfate.
Spontaneously immortalized human keratinocyte cell line HaCaT, frequently referred to in literature as a standard model.
The protocol used for the cell migration study is based on the use of a 96-well Oris Cell Migration Assay kit (Platypus Technologies-TEBU), providing miniaturization and quantification of this cell process.
The principle of this assay is to investigate the cell migration towards the centre of the well of a 96-well plate. A stopper is placed in some wells, in order to create a detection zone of 2 mm in diameter. Then the stoppers are removed after the cells have well adhered to the surface around them, thus allowing the cells to migrate towards the detection zone. The plates without the stoppers and with the active substances are incubated at 37° C. for 24 hours in DMEM 0% SVF. Following this, the amount of cells located in the zone where the stopper was, is analyzed, in order to assess cell migration. A mask restricts visualization and reading to cells located in this zone only. For each condition, the average for 4 to 8 wells is calculated.
The results are expressed as OD (proportional to the amount of migrated cells).
Percent activity with regard to the negative control is calculated as: […]
Percent activity with regard to TGFβ is calculated as: […]

[1] = Experiment 1, 5 ng/mL, 24 hours, positive control
[2] = Experiment 2, 5 ng/mL, 24 hours, positive control
[3] = Experiment 1, 1 μM, 24 hours at 37° C., DMEM 0% SVF, OD proportional to amount of migrated cells
[4] = Experiment 2, 1 μM, 24 hours at 37° C., DMEM 0% SVF, OD proportional to amount of migrated cells
[5] = summary statement, no concentration given

Compound | induction of keratinocyte migration (in words) (5 ng/mL, both experiments, positive control) | % activity/negative control [1] [%] | Average OD [1] | % activity/negative control [2] [%] | Average OD [2] | % activity/TGFβ (Experiment 1, 1 μM, 24 hours) [%] | % activity/negative control (Experiment 1, 1 μM, 24 hours) [%] | Average OD [3] | % activity/TGFβ (Experiment 2, 1 μM, 24 hours) [%] | % activity/negative control (Experiment 2, 1 μM, 24 hours) [%] | Average OD [4] | induction of keratinocyte migration (in words) (at the concentrations tested) | induction of keratinocyte migration (in words) [5] | activity compared with the positive control TGFβ (in words) (1 μM vs TGFβ 5 ng/mL) | induction of keratinocyte migration (in words) (1 μM, both experiments)
TGFβ: Positive control: TGFβ1, polypeptide growth factor | induces keratinocyte migration reproducibly | 294.9 | 258.6 | 183.8 | 436.3 |  |  |  |  |  |  |  |  |  | 
O=S(=O)([O-])OC[C@H]1O[C@@](COS(=O)(=O)[O-])(O[C@H]2O[C@H](COS(=O)(=O)[O-])[C@@H](OS(=O)(=O)[O-])[C@H](OS(=O)(=O)[O-])[C@H]2OS(=O)(=O)[O-])[C@@H](OS(=O)(=O)[O-])[C@@H]1OS(=O)(=O)[O-].[K+].[K+].[K+].[K+].[K+].[K+].[K+].[K+] [SOS-K, Potassium sucrose octasulfate] |  |  |  |  |  | 6.9 | 113.5 | 99.5 | 42.2 | 135.3 | 321.3 | do not induce keratinocyte migration | do not induce cell migration |  | 
zinc sucrose octasulfate [SOS-Zn] |  |  |  |  |  | 128.3 | 350.0 | 306.9 | 90.7 | 176.0 | 417.8 |  | induces keratinocyte migration | as active as the positive control TGFβ | induces cell migration reproducibly
O=S(=O)([O-])OC[C@H]1O[C@@](COS(=O)(=O)[O-])(O[C@H]2O[C@H](COS(=O)(=O)[O-])[C@@H](OS(=O)(=O)[O-])[C@H](OS(=O)(=O)[O-])[C@H]2OS(=O)(=O)[O-])[C@@H](OS(=O)(=O)[O-])[C@@H]1OS(=O)(=O)[O-].[Na+].[Na+].[Na+].[Na+].[Na+].[Na+].[Na+].[Na+] [SOS-Na, Sodium sucrose octasulfate] |  |  |  |  |  | −34.6 | 32.6 | 28.6 | −47.1 | 59.9 | 142.3 | do not induce keratinocyte migration | do not induce cell migration |  | 
